Read-outs that look alike come from different tables or passages of the source. Each block holds one compound with its values, some of them ahead of it.
Assays:
human CD39 [1] = target: T1, human CD39 (Homo sapiens, UniProt P49961); design: Human umbilical cord membrane preparations (250 ng) natively expressing high amounts of CD39; from tissue; host or cells: human umbilical cord membranes; method as in Lee et al., 2018; conditions: fluorescent substrate of CD39; ref Lee et al., 2018; cited from earlier work
T1 sequence (P49961 1-510): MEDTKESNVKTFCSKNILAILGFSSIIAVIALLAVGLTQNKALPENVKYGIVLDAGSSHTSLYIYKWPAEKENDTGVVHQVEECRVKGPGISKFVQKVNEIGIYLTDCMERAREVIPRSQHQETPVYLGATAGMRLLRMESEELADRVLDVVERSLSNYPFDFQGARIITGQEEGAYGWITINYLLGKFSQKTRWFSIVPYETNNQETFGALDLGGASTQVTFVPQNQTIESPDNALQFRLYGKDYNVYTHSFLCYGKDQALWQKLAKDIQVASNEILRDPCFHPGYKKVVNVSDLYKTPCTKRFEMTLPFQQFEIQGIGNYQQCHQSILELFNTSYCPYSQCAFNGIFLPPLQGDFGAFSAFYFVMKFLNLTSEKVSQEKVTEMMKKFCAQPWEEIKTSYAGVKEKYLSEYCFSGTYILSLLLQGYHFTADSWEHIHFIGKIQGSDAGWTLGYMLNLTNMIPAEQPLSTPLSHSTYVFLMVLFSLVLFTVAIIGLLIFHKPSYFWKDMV

human CD39 [2] = target: T1, human CD39; test: Fluorescence capillary electrophoresis assay for CD39; format: biochemical; design: Human umbilical cord membrane preparations (250 ng) natively expressing high amounts of CD39; from tissue; host or cells: human umbilical cord membranes; conditions: for Ki: fluorescent substrate PSB-017621A 0.5 µM, human umbilical cord membrane preparation, n = 3, Cheng-Prusoff, read-out: Ki ± SEM
Experimental: (§1) They were minced and homogenized with a polytron in 95 mM NaCl, 0.1 mM phenylmethylsulfonyl fluoride (PMSF), and 45 mM Tris solution, pH 7.6. […] The pellets were resuspended in 5 mM Tris buffer solution, pH 8.0 and 10% glycerol. All purification steps were performed at 4°C. The preparations were kept at −80°C.
For inhibition screening, three independent experiments were performed. […] The reaction buffer contained 10 mM HEPES, 2 mM CaCl2, 1 mM MgCl2, pH 7.4. The samples were incubated at 37°C for 4 min, and the enzymatic reaction was terminated by heating at 90°C for 5 min. The solution was then diluted 1:20 with reaction buffer to perform separation of nucleotides by capillary electrophoresis (CE) followed by laser-induced fluorescence (LIF) detection. […] Three independent experiments were performed, and curves were calculated by GraphPad Prism 8 software (GraphPad software, San Diego, CA, USA).
Analysis was carried out using a P/ACE MDQ capillary electrophoresis system (Beckman Instruments, Fullerton, CA, USA). The separation was performed in a polyacrylamide-coated capillary [30 cm (10 cm effective length) × 50 µm (id), × 360 µm (od)]. Before each run, the capillary was rinsed with the background electrolyte [50 mM phosphate buffer (pH 6.5)] for 1 min at 30 psi. Samples were electrokinetically injected by applying a voltage of -6 kV for 30 s at the capillary outlet, and the fluorescent nucleotide derivatives were separated by voltage application of -15 kV. […] Data collection and peak area analysis were performed by the P/ACE MDQ software 32 KARAT obtained from Beckman Coulter (Fullerton, CA, USA).

human CD39 [3] = target: T1, human CD39; test: Malachite green assay for CD39 (natural substrate ATP); format: biochemical; design: Human umbilical cord membrane preparations (250 ng) natively expressing high amounts of CD39; from tissue; host or cells: human umbilical cord membranes; conditions: natural substrate ATP 50 µM, n = 3, read-out: Ki ± SEM (converted)
Experimental: as §1
The reaction buffer contained 10 mM HEPES, 2 mM CaCl2, 1 mM MgCl2, pH 7.4 in a final volume of 50 μl in transparent 96-well half area plates. For CD39 (NTPDase1), we made use of human umbilical cord membranes preparations which express high levels of the enzyme. For the other human NTPDase isoenzymes, we had to resort to recombinant expression. […] The amount of enzyme preparation was adjusted to ensure 10–20% of substrate conversion. […] The released (inorganic) phosphate was quantified after 20 min of gentle shaking at 25°C by measuring the absorption of the malachite green-phosphomolybdate complex at 600 nm using a BMG PheraStar FS plate reader (BMG Labtech GmbH, Ortenberg, Germany).
% Inhibition=(B−T)/B*100%
where B is the average corrected absorption of the positive control without inhibitor and T the corrected absorption in the presence of test compound.
Full concentration-inhibition curves were determined with inhibitor concentrations ranging from 0.1 to 300 µM in the presence of 2% DMSO. Three independent experiments were performed (n = 3) and curves were calculated by the GraphPad Prism 8 software. The Ki value was calculated using the Cheng-Prusoff equation for competitive inhibitors: […]

human CD39 [4] = target: T1, human CD39; design: Human umbilical cord membrane preparations (250 ng) natively expressing high amounts of CD39; from tissue; host or cells: human umbilical cord membranes; conditions: Figure 2, ref Crack et al., 1995, Müller et al., 2006, Lévesque et al., 2007, Baqi et al., 2009, Lecka et al., 2013, Lee et al., 2015, Kanwal et al., 2019, read-out: Ki (reported potency); cited from earlier work
human CD39 [5] = target: T1, human CD39; conditions: read-out: Km (CD39); substrate ATP; ref Kukulski et al., 2005; cited from earlier work
NTPDase2 = target: T2, NTPDase2 (Homo sapiens, UniProt Q9Y5L3); conditions: read-out: Km (NTPDase2); substrate ATP; ref Kukulski et al., 2005; cited from earlier work
T2 sequence (Q9Y5L3 1-495): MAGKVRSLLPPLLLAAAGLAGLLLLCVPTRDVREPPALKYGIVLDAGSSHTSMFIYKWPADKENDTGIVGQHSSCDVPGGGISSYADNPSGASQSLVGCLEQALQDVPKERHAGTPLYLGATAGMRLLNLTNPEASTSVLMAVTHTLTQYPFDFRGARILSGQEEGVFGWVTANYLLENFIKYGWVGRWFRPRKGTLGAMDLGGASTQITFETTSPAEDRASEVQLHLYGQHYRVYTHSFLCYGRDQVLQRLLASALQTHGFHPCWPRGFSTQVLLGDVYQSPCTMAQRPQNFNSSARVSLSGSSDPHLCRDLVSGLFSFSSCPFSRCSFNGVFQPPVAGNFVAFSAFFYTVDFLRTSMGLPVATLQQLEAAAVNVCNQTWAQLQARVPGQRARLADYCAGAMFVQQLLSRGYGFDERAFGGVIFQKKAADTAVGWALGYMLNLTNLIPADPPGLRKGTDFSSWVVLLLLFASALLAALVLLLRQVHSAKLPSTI

NTPDase3 = target: T3, NTPDase3 (Homo sapiens, UniProt O75355); conditions: read-out: Km (NTPDase3); substrate ATP; ref Kukulski et al., 2005; cited from earlier work
T3 sequence (O75355 1-529): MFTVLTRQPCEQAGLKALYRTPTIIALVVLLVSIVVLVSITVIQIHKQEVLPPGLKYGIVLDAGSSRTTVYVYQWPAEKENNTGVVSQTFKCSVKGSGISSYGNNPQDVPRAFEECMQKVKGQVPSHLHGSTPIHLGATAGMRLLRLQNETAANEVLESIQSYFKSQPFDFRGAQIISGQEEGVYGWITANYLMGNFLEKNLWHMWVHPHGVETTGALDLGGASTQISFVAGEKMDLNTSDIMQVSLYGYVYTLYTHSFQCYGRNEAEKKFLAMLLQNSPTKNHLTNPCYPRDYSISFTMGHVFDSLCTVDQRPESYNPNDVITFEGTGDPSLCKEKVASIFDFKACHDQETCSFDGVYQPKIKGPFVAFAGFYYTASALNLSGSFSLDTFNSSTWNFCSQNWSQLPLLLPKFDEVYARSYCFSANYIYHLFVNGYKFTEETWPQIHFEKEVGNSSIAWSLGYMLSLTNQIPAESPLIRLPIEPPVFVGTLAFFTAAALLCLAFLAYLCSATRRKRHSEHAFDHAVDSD

NTPDase8 = target: T4, NTPDase8 (Homo sapiens, UniProt Q5MY95); conditions: read-out: Km (NTPDase8); substrate ATP; ref Kukulski et al., 2005; cited from earlier work
T4 sequence (Q5MY95 1-495): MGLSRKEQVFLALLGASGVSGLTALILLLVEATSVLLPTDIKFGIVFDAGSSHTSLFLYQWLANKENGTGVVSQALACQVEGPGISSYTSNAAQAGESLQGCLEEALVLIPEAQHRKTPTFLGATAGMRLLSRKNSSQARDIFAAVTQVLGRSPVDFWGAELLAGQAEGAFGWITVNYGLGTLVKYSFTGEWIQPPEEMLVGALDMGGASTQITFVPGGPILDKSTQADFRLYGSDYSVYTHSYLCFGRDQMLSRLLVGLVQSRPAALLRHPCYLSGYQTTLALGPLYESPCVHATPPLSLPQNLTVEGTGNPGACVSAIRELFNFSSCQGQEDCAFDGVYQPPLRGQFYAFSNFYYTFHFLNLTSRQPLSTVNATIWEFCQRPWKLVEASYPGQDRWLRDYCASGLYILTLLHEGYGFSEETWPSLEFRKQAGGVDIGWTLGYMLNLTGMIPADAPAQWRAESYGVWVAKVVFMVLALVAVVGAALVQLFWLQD

rat CD39 = target: rat CD39; design: method as in Baqi et al., 2009; conditions: Figure 2, ref Baqi et al., 2009, read-out: Ki (reported potency); cited from earlier work

SMILES: O=C(NCCCCCCNc1ncnc2c1ncn2[C@@H]1O[C@H](COP(=O)(O)OP(=O)(O)OP(=O)(O)O)[C@@H](O)[C@H]1O)c1ccc2c(c1)C(=O)OC21c2ccc(O)cc2Oc2cc(O)ccc21 [PSB-017621A, N^6-[6-(Fluoresceinyl-5′-carboxamido)hexyl]-ATP]
Km (human CD39 [1]): 19.6 µM

Ki (human CD39 [2]): 10.6 ± 0.4 µM
IC50 (in words) (human CD39 [2]; human CD39): low micromolar range
fold less potent than dibromo-derivative 38 at CD39 (human CD39 [2]; ratio of Ki values, fluorescence CE assay): about 2 fold
Ki (human CD39 [3]): 4.55 µM
SMILES: Nc1ncnc2c1ncn2[C@@H]1O[C@H](COP(=O)(O)OP(=O)(O)C(F)(F)P(=O)(O)O)[C@@H](O)[C@H]1O [Compound 40, (((((((2R,3S,4R,5R)-5-(6-Amino-9H-purin-9-yl)-3,4-dihydroxytetrahydrofuran-2-yl)methoxy)-(hydroxy)-phosphoryl)oxy)(hydroxy)phosphoryl)difluoromethyl)-phosphonic Acid]

SMILES: Oc1c(Cl)cc(Cl)cc1/C=N/CCc1c[nH]c2ccccc12 [Tryptamine derivative (V)]
Ki (human CD39 [4]): 0.021 µM

SMILES: Nc1ncnc2c1ncn2[C@@H]1O[C@H](COP(=O)(O)OP(=O)(O)OP(=O)(O)O)[C@@H](O)[C@H]1O [ATP]
Km (human CD39 [5]): 17 µM
Km (NTPDase2): 70 µM
Km (NTPDase3): 75 µM
Km (NTPDase8): 46 µM

SMILES: Nc1ncnc2c1ncn2[C@@H]1O[C@H](COP(=O)(O)CP(=O)(O)OP(=O)(O)O)[C@@H](O)[C@H]1O [Compound 41, α,β-Methylene-ATP, reference compound]
Ki (human CD39 [2]): 0.632 ± 0.024 µM
Ki (human CD39 [3]): 7.2 µM

Ki (human CD39 [2]): 7.48 ± 1.29 µM
Ki (human CD39 [3]): 5.98 µM
SMILES: CCCCSc1nc2c(N(CC)CC)ncnc2n1[C@@H]1O[C@H](COP(=O)(O)OP(=O)(O)C(Br)(Br)P(=O)(O)O)[C@@H](O)[C@H]1O [Compound 37, (Dibromo((((((2R,3S,4R,5R)-5-(8-(butylthio)-6-(diethylamino)-9H-purin-9-yl)-3,4-dihydroxy-tetrahydrofuran-2-yl)methoxy)(hydroxy)phosphoryl)oxy)-(hydroxy)phosphoryl)methyl)phosphonic Acid]

SMILES: Nc1c(S(=O)(=O)O)cc(Nc2ccc3ccccc3c2)c2c1C(=O)c1ccccc1C2=O [III, 1-Amino-2-sulfo-4-(2-naphthylamino)-anthraquinone]
Ki (rat CD39): 0.33 µM

— publication PMC7508162 (Frontiers in Pharmacology, 2020)
